Test results from PubChem BioAssay AID623935 (Southern Research Specialized Biocontainment Screening …, 2012).
Activity calls are given as the source filed them. The rule behind the calls is not given here.

Test system: Chikungunya virus infected cells, antiviral inhibition
Assay: Chikungunya virus antiviral inhibition, dose response, cell-based, secondary assay (AID 623935)

Compound: CCN1CCN(Cc2nc3ccc([N+](=O)[O-])cc3c(=O)n2-c2ccccc2F)CC1
- IC50: > 100 µM (inactive)

Compound: CN(C(=O)Cc1cccs1)c1nc2c(s1)CCCC2
- IC50: 3.16 µM
